# Measurements: ChEMBL document CHEMBL1145678, “Histamine-release effectors from Angelica dahurica var. dahurica root” (1997)
# Tests used:
# [1] = tested on: Mus musculus; test: Effect on compound 48/80-induced histamine level in ddY mouse peritoneal cavity fluid assessed as histamine release at 10 mg/kg, ip administered 15 mins before compound 48/80 challenge measured after 10 mins by fluorometric assay relative to control; type: functional; conditions: route intraperitoneal
# [2] = tested on: Mus musculus; test: Effect on compound 48/80-induced histamine level in ddY mouse peritoneal cavity fluid assessed as histamine release at 25 mg/kg, ip administered 15 mins before compound 48/80 challenge measured after 10 mins by fluorometric assay relative to control; type: functional; conditions: route intraperitoneal
structure (smiles),measurement,setting,value
COc1c2ccoc2c(OC[C@@H](O)C(C)(C)O)c2oc(=O)ccc12 [BYAKANGELICIN],Activity,[1],105.4%
same,Activity,[2],57%
COc1c2ccoc2c(OC[C@@H](OC(C)=O)C(C)(C)O)c2oc(=O)ccc12,Activity,[1],93.2%
same,Activity,[2],151%
CC1(C)O[C@H]1COc1c2ccoc2cc2oc(=O)ccc12 [OXYPEUCEDANIN],Activity,[1],142.6%
same,Activity,[2],136.1%
COc1c2ccoc2c(OCC=C(C)C)c2oc(=O)ccc12 [PHELLOPTERIN],Activity,[1],109.8%
same,Activity,[2],137.7%
CC(C)(O)[C@H](O)COc1c2ccoc2cc2oc(=O)ccc12 [OXYPEUCEDANIN HYDRATE],Activity,[1],114.8%
same,Activity,[2],69.1%
COc1c2ccoc2cc2oc(=O)ccc12 [BERGAPTEN],Activity,[1],108.2%
same,Activity,[2],55.4%
